Measurements from PubChem BioAssay (NCI).
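In this assay, cells in 96-well plates receive the compound at five concentrations for 48 hours. Endpoints are linearly interpolated between the surrounding concentrations. GI50 = concentration required for 50% inhibition of growth. TGI is the concentration that stops growth completely.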

Columns and labels:
Assay in all cases: inhibition of tumour cell growth, NCI panel, 48 h
[1] = tested on: IGROV1 ovarian
[2] = tested on: 786-0 renal
[3] = tested on: CCRF-CEM leukemia
[4] = tested on: BT-549 breast
[5] = tested on: ACHN renal
[6] = tested on: A549 NSCLC
[7] = tested on: SK-OV-3 ovarian
[8] = tested on: SF-295 CNS
[9] = tested on: MDA-MB-435
[10] = tested on: HOP-62 NSCLC

Structure (SMILES) | TGI [1] | TGI [2] | TGI [3] | TGI [4] | TGI [5] | TGI [6] | TGI [7] | TGI [8] | TGI [9] | TGI [10] | GI50 [1] | GI50 [2] | GI50 [3] | GI50 [4] | GI50 [5] | GI50 [6] | GI50 [7] | GI50 [8] | GI50 [9] | GI50 [10]
CCCc1nc(Cl)nc(Cl)c1Cl | 2.14 µM | 1.43 µM | 0.0731 µM | 0.0764 µM | 1.62 µM | 6.59 µM | 6.95 µM | 6.89 µM | 1.41 µM | 2.44 µM |  |  |  |  |  |  |  |  |  | 
CCOC(=O)c1sc(-c2ccc(OS(=O)(=O)C[C@]34CCC(CC3=O)C4(C)C)c(C=O)c2)nc1C | 2.85 µM | 4.09 µM | > 50 µM | 2.48 µM | 3.71 µM | > 50 µM | 4.09 µM | 2.85 µM | 2.76 µM | 3.27 µM | 1.07 µM | 1.39 µM | 1.01 µM | 0.916 µM | 1.3 µM | 1.25 µM | 1.3 µM | 1.16 µM | 1.06 µM | 1.21 µM
C=CC(C)(C)n1cc(C2=C(O)C(=O)C(c3cn(C(C)(C)C=C)c4ccccc34)=C(O)C2=O)c2ccccc21 | 7.15 µM | > 34.8 µM | > 100 µM | 3.63 µM | 12.9 µM | 14.6 µM | 10.4 µM | 12.8 µM | 14.7 µM | 8.43 µM |  |  |  |  |  |  |  |  |  | 
Clc1ccc(/C=C/c2ccc3ccccc3n2)cc1 | > 80.8 µM | > 100 µM | > 100 µM | > 71.8 µM | > 100 µM | > 100 µM | > 21 µM | 6.8 µM | 0.531 µM | > 100 µM | 0.716 µM | 6.33 µM | 0.508 µM | 3.16 µM | 4.82 µM | 1.75 µM | 0.519 µM | 1.2 µM | 0.226 µM | > 100 µM
C=C1C(=O)O[C@H]2[C@H]1CC/C(Cn1cc(-c3ccc(N)cc3)nn1)=C\CC[C@@]1(C)O[C@@H]21 | 14.1 µM | 4.62 µM | 20.3 µM | 11.7 µM | 12 µM | 28.1 µM | 34.4 µM | 26.5 µM | 11.5 µM | 23.8 µM | 2.96 µM | 1.98 µM | 2 µM | 3.05 µM | 2.65 µM | 11.9 µM | 18.3 µM | 12.1 µM | 3.01 µM | 10.2 µM
O=C(NN1C(=O)CSC1c1cccc(Cl)c1)C(O)c1ccccc1 (stereo unspecified) | > 100 µM | > 100 µM | > 100 µM | > 100 µM | > 100 µM | > 100 µM | > 100 µM | > 100 µM | > 100 µM | > 100 µM | > 100 µM | > 100 µM | > 100 µM | > 100 µM | 67.4 µM | 35.9 µM | > 100 µM | 22.4 µM | > 100 µM | > 100 µM
C=C1C(=O)O[C@H]2[C@H]1CC/C(COC(=O)NCc1ccc(Cn3c(=O)sn(CCCCC)c3=O)cc1)=C\CC[C@@]1(C)O[C@@H]21 | 4.8 µM | 4.23 µM | 1.67 µM | 4.62 µM | 3.14 µM | 22.8 µM | 21.1 µM | 25.1 µM | 3.5 µM | 22.6 µM | 2.11 µM | 1.98 µM | 0.364 µM | 1.91 µM | 1.68 µM | 8.82 µM | 8.77 µM | 12.5 µM | 1.71 µM | 9.53 µM
FC(F)(F)c1ccc(-c2nn3ncccc3c2-c2ccnc(Nc3ccc4c(c3)OCCO4)n2)cc1 | > 25 µM | > 25 µM | > 25 µM | > 25 µM | > 25 µM | > 25 µM | > 25 µM | > 25 µM | > 25 µM | > 25 µM | 5.19 µM | 17.3 µM | 10.8 µM | 17.3 µM | 14.7 µM | 21.4 µM | 9.08 µM | 6.91 µM | 10.7 µM | > 25 µM
CCCCCCCCCc1ccc(OCCOCCOCCOCCOCCOCCOCCOCCOCCO)cc1 | 4.32 µM | 4.12 µM | 2.04 µM | 1.61 µM | 5.7 µM | 3.69 µM | 2.45 µM | 1.96 µM | 3.05 µM | 1.05 µM | 0.999 µM | 1.02 µM | 0.305 µM | 0.59 µM | 1.19 µM | 0.414 µM | 0.991 µM | 0.304 µM | 0.832 µM | 0.412 µM
Cc1cc(CCl)c(C)cc1CCl | 6.25 µM |  | 5.61 µM | 18.9 µM | 3.08 µM | 5.09 µM | 23 µM | 4.61 µM | 4.69 µM | 3.79 µM | 1.47 µM | 2.19 µM | 0.351 µM | 4.34 µM | 0.695 µM | 1.66 µM | 4.92 µM | 0.84 µM | 1.84 µM | 1.58 µM
CCn1cc(/C=C2\Oc3cc(OCC#N)ccc3C2=O)c2cc(OC)ccc21 | > 100 µM | > 40.9 µM | > 100 µM | 20.3 µM | > 100 µM | > 100 µM | > 78.5 µM | 20.7 µM | 0.263 µM | > 46.6 µM | 0.509 µM | 0.167 µM | 0.113 µM | 0.229 µM | 0.847 µM | 2.48 µM | 1.7 µM | 0.221 µM | 0.0764 µM | 0.622 µM
COc1ccc(-c2cnnn2-c2nonc2-n2cccc2)cc1OC | > 100 µM | > 100 µM | > 100 µM | > 100 µM | > 100 µM | > 100 µM | 29.8 µM | 44.6 µM | 3.01 µM | > 100 µM | 5.13 µM | 7.15 µM | 3.3 µM | 4.06 µM | 7.8 µM | 4.15 µM | 5.18 µM | 3.94 µM | 0.716 µM | 5.21 µM
Nc1c(C(=O)c2cccc(C#CCN3CCCCC3)c2)cnn1-c1ccc(F)cc1 | > 25 µM | > 25 µM | > 25 µM | > 25 µM | > 25 µM | > 25 µM | > 25 µM | > 25 µM | > 25 µM | > 25 µM | > 25 µM | > 25 µM | > 25 µM | > 13.3 µM | > 19.2 µM | > 25 µM | > 25 µM | > 25 µM | 15.3 µM | > 25 µM
COc1cc(F)ccc1-c1cc(Nc2cc(CS(C)(=N)=O)ccn2)ncc1F (stereo unspecified) | > 100 µM | > 47 µM | > 100 µM | 2.06 µM | > 100 µM | > 100 µM | > 100 µM | > 100 µM | > 100 µM | > 100 µM | 0.0571 µM | 0.0446 µM | 0.0344 µM | 0.0739 µM | 0.0371 µM | 0.105 µM | 0.638 µM | 0.0662 µM | 0.107 µM | 0.0624 µM
CC(=O)c1cccc(NC(=O)C(=O)c2c(O)c3ccccc3oc2=O)c1 | > 100 µM | > 100 µM | > 100 µM | > 100 µM | > 100 µM | > 100 µM | > 100 µM | > 100 µM | > 100 µM | > 100 µM |  |  |  |  |  |  |  |  |  | 
CCOC(=O)c1ccc(NC(=O)NC2=NCCS2)cc1 | > 100 µM | > 100 µM | > 100 µM | > 40.1 µM | > 100 µM | > 100 µM | 7.76 µM | 6.13 µM | 19.4 µM | > 100 µM | 2.11 µM | 0.693 µM | 0.433 µM | 0.84 µM | 45.9 µM | 0.584 µM | 1.03 µM | 0.619 µM | 3.42 µM | 1.75 µM
O=C(Nc1cccc2[nH]c(C(F)(F)F)nc12)c1cc(Cl)ccc1Cl | > 100 µM | 12.1 µM | 46.8 µM | 8.14 µM | 16.6 µM | > 100 µM | 6.06 µM | 6.55 µM | 12.4 µM | 7.37 µM | 6.04 µM | 3.01 µM | 3.16 µM | 2.33 µM | 2.88 µM | 3.45 µM | 2.21 µM | 2.23 µM | 2.96 µM | 2.34 µM
COc1cccc(CNc2ncnc3c2ncn3C2OC(CO)C(O)C2O)c1O (stereo unspecified) |  | > 100 µM | > 100 µM | 0.0978 µM |  | > 100 µM | 0.932 µM | 0.66 µM | 2.78 µM | > 100 µM | 0.206 µM | 0.27 µM |  | 0.0205 µM | 0.128 µM | 1.05 µM | 0.179 µM | 0.165 µM | 0.111 µM | 0.387 µM
CSc1ncnc2c1ncn2CC(=O)C1CCC2C3CCC4=CC(=O)CCC4(C)C3CCC12C (stereo unspecified) | > 100 µM | > 100 µM | 2.16 µM | 9.89 µM | 23.8 µM | > 64.7 µM | > 100 µM | 23.7 µM | 10 µM | > 30.1 µM |  |  |  |  |  |  |  |  |  | 
CCCN(CCC)c1ccc(C=O)c(Cl)c1 | 7.18 µM | 53 µM | > 100 µM | > 80.4 µM | > 100 µM | > 100 µM | > 100 µM | 29.2 µM | > 87.8 µM | 64.9 µM | 0.558 µM | 20 µM | 35.5 µM | 24 µM | 31.7 µM | 7.66 µM | 24.4 µM | 3.87 µM | 25.2 µM | 13.3 µM
